Here are results for seven compounds from ChEMBL document CHEMBL1159269, “Mechanistic evaluation of new plant-derived compounds that inhibit HIV-1 reverse transcriptase” (J Nat Prod, 1995).

Where only a bound is given, the exact number is not on record here.

In one experiment the target is DNA polymerase beta (Homo sapiens, UniProt P06746). The experiment in a line: Inhibition of DNA polymerase beta.
Experiment [1] can be described thus: Inhibition of HIV2 reverse transcriptase p66/p51. Also on record: species or system Human immunodeficiency virus 2.
Experiment [2] is described as follows: Inhibition of AMV reverse transcriptase. On the set-up: species or system Avian myeloblastosis virus.
Experiment [3] is described as follows: Inhibition of RNA polymerase.
A further experiment has as its system KB. As to the kind of experiment: Cytotoxicity against human KB cells. To be noted: read-out: ED50 (the source's name). The class given is functional.
For the next experiment, the system named is Lu1. As to the kind of experiment: Cytotoxicity against human Lu1 cells. The class given is functional. To be noted: read-out: ED50 (the source's name).
The test system of another experiment is LNCaP. The experiment in a line: Cytotoxicity against human LNCAP cells. The class given is functional. To be noted: read-out: ED50 (the source's name).
In a further experiment the test system is ZR-75-1. As to the kind of experiment: Cytotoxicity against human ZR-75-1 cells. It is filed as functional. To be noted: read-out: ED50 (the source's name).
The test system of the next experiment is DNA. The experiment in a line: Binding affinity to calf thymus DNA assessed as inhibition of DNA peak at 260 nm wavelength at 250 ug/ml by HPLC. The class given is nucleic-acid assay. To be noted: Bos taurus.
Experiment [4] concerns the target Human immunodeficiency virus type 1 reverse transcriptase (Human immunodeficiency virus 1) (UniProt Q72547). As to the kind of experiment: Inhibition of HIV1 reverse transcriptase p66/p51 at 50 ug/ml in presence of 2.5 ug/ml BSA.
Experiment [5] shares this target. As to the kind of experiment: Inhibition of HIV1 reverse transcriptase p66/p51 at 50 ug/ml in presence of 250 ug/ml BSA.
Experiment [6] shares this target. The experiment in a line: Inhibition of HIV1 reverse transcriptase p66/p51 at 50 ug/ml in presence of 1000 ug/ml BSA.
Experiment [7] concerns the target T1, Human immunodeficiency virus type 1 reverse transcriptase (Human immunodeficiency virus 1, UniProt Q72547). As to the kind of experiment: Inhibition of HIV1 reverse transcriptase p66/p51 using template-primer [oligo(dT)12-18 + poly(rA)] by mixed type competitive inhibition assay.
The target of experiment [8] is T1, Human immunodeficiency virus type 1 reverse transcriptase. The experiment in a line: Inhibition of HIV1 reverse transcriptase p66/p51 using TTP substrate by non-competitive inhibition type assay.
The target is the same in experiment [9]. The experiment in a line: Inhibition of HIV1 reverse transcriptase p66/p51.
Experiment [10] shares this target. As to the kind of experiment: Inhibition of HIV1 reverse transcriptase p66/p51 using template-primer [oligo(dT)12-18 + poly(rA)] by competitive type inhibition assay.
For experiment [11] the target is unchanged. The experiment in a line: Inhibition of HIV1 reverse transcriptase p66/p51 using TTP substrate by mixed type competitive inhibition assay.
In experiment [12] the target is Human immunodeficiency virus type 1 reverse transcriptase (Human immunodeficiency virus 1) (UniProt Q72547). As to the kind of experiment: Inhibition of HIV1 reverse transcriptase p66/p51 at 200 ug/ml in presence of 250 ug/ml BSA.
Experiment [13] shares this target. As to the kind of experiment: Inhibition of HIV1 reverse transcriptase p66/p51 at 200 ug/ml in presence of 1000 ug/ml BSA.

As a reminder, the IC50 is the midpoint of a concentration-inhibition curve. What is called inhibition is the drop in the measured response relative to a control, in per cent. One may read the Ki as a measure of affinity in units of concentration, obtained from inhibition or displacement. Take `CC1(C)CC[C@]2(C(=O)O)CC=C3[C@]4(C)CC[C@H]5C(C)(C)[C@@H](OC(=O)c6ccc(O)cc6)C[C@@H](O)[C@]5(C)[C@H]4CC[C@@]3(C)[C@H]2C1`: the half-maximal inhibitory concentration (IC50) on DNA polymerase beta is 2.2 µM; in experiment [1], 59 µM; in [2] it was 15.1 µM; in experiment [3] it was greater than 338 µM. The EC50 with KB, with Lu1, in the experiment with LNCaP and in the experiment with ZR-75-1 was greater than 20 µg/mL throughout. In addition, the inhibition was found to be 0% with DNA, 94% in experiment [4], 19% in experiment [5] and 0.8% in experiment [6]. In addition, the Ki in experiment [7] stood at 6.7 µM; in experiment [8] it was 8.3 µM.
In experiment [9], `CCCc1cc(=O)oc2c3c(c4c(c12)OC(C)(C)C=C4)O[C@H](C)[C@@H](C)[C@@H]3O` [CALANOLIDE A] returned an IC50 of 1 µM.
As to `COc1cc(O)c2c(=O)c3c(O)c(-c4c(O)c([C@@H]5O[C@H](CO)[C@@H](O)[C@H](O)[C@H]5O)c(O)c5c(=O)cc(-c6ccc(O)c(O)c6)oc45)cc(O)c3oc2c1`, the 50% inhibitory concentration (IC50) in experiment [9] turned out to be 42.9 µM; against DNA polymerase beta, 57.7 µM; in experiment [1], 56.6 µM; in experiment [2] it was 81 µM; in [3] it was 272 µM. Besides, the EC50 in the experiment with KB, in the experiment on Lu1, with LNCaP and in the experiment on ZR-75-1 was greater than 20 µg/mL each time. Also, the Ki was determined as 6.7 µM in experiment [10] and 7.1 µM in [11]. Further, the inhibition in the experiment on DNA is 71%; in experiment [12] it was 89%; in [13] it was 82%.
For `Cc1cn([C@H]2C[C@H](N=[N+]=[N-])[C@@H](CO)O2)c(=O)[nH]c1=O` [ZIDOVUDINE], the IC50 on DNA polymerase beta is greater than 20 µM; in [1], 0.2 µM; in [2], 0.43 µM; in [3], greater than 20 µM.
As to `COc1cc2c(ccc3c4cc(OC)c(OC)cc4c[n+](C)c23)cc1O`, the inhibition in the experiment on DNA stood at 100%.
Turning to `CC1=C(C#C/C(C)=C/C=C/C(C)=C/C=C/C=C(C)/C=C/C=C(\C)C(=O)C[C@@]23O[C@]2(C)C[C@@H](O)CC3(C)C)C(C)(C)C[C@H](O)C1` [HALOCYNTHIAXANTHIN], half-maximal inhibition in experiment [9] (IC50) was put at 7.2 µM.
In the case of `C=C1C(=O)O[C@@H](CCCCCCCCCCCCC)[C@@H]1C(=O)O` [PROTOLICHESTERINIC ACID], the IC50 in experiment [9] worked out at 24.3 µM; against DNA polymerase beta it was 7.4 µM; in experiment [1], 29.6 µM; in experiment [2], 21.9 µM; in [3] it was 92.8 µM. Further, the EC50 in the experiment on KB, in the experiment on Lu1, in the experiment with LNCaP and with ZR-75-1 was greater than 20 µg/mL in each case. Further, the inhibition in the experiment on DNA stood at 1.3%; in experiment [4] it was 99%; in [5] it was 52%; in [6] it was 19%. In addition, the results for the inhibitory constant (Ki) in experiment [7] and in experiment [8] were 10 µM and 7.1 µM, respectively.
